In patent EP4786466A1, “QUINAZOLINE DERIVATIVE, SALT THEREOF, AND PHARMACEUTICAL COMPOSITION COMPRISING SAME AS ACTIVE INGREDIENT” (Korea Research Institute of Chemical Technology, priority 2023, dated 2025):
Counter-ions that a name gives are not always drawn. Like-named read-outs stand apart in the source and are kept apart here.

Legend:
[1] = biological target: T1, Recombinant GST-TAG-MASTL (Homo sapiens, UniProt Q96GX5); assay: HTRF-based kinase assay (HTRF KinEASE assay kit); format: biochemical; settings: for activity at 10 µM: footnote b: concentration 10 µM; for activity at 1 µM: read-out: MASTL activity (%) HTRF (1 µM)
T1 construct: GST; purchased Thermo Fisher Scientific
T1 sequence (Q96GX5 1-879): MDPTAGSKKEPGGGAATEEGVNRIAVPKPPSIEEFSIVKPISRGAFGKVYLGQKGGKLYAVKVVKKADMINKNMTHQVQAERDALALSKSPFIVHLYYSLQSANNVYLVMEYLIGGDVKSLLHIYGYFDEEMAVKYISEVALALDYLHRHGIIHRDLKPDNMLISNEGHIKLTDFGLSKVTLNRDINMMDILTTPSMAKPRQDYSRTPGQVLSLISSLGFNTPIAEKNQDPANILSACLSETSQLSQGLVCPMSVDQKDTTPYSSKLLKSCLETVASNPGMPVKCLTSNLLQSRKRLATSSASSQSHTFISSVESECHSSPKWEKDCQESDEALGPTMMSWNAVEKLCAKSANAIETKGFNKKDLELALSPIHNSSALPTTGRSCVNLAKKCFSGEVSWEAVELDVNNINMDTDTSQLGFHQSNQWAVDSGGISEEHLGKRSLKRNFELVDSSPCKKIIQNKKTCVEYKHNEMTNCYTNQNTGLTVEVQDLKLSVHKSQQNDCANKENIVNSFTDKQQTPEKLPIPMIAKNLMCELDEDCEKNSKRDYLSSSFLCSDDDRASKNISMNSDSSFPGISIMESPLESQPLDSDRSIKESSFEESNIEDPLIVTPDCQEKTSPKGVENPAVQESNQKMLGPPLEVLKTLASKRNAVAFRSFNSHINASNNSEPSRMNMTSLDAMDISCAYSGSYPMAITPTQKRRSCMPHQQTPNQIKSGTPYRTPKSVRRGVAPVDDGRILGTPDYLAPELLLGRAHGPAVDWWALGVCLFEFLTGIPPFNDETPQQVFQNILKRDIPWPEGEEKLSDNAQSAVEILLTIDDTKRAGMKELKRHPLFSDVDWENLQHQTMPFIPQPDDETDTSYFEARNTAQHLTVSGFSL
From the text: Recombinant GST-TAG-MASTL (Thermo Fisher Scientific, MA, USA) was used for HTRF-based kinase assays. The HTRF KinEASE assay kit (CisBio, MA, USA) was used according to the manufacturer's instructions.

[2] = in vitro; settings: human
Protocol: (§1) MCF7 breast cancer cell lines and MCF10A normal breast cancer cell lines were treated with serial dilutions of the compounds of the present invention ranging from 1 µM to 15.63 nM for 72 hours. Cell viability was measured by the WST-8 assay (Cyto XTM cell viability assay kit; LPS solution, Daejeon, Korea) according to the manufacturer's instructions.

[3] = tested on: MCF7 breast cancer cell lines; assay: Cell viability analysis, WST-8 assay, MCF7; settings: Homo sapiens, MCF7, 72 h; for viability at 1.25 µM: read-out: Cell viability (%) WST-8, MCF7, footnote a: concentration 1.25 µM, 72 hours; for viability at 1 µM: read-out: Cell viability (%) WST-8, MCF7 (1 µM), compound 1 µM, 72 hours
Protocol: as §1

[4] = tested on: MCF10A normal breast cell lines; assay: Cell viability analysis, WST-8 assay, MCF10A; settings: Homo sapiens, MCF-10A, 72 h
Protocol: as §1

[5] = tested on: pENSA; assay: pENSA level by immunofluorescence (described method: in vitro kinase analysis with GST-tag-MASTL and His-tag-ENSA); format: cell-based; settings: for pENSA (%) Immunofluor ecense (1 µM): compound 1 µM
How it was run: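 In vitro kinase reaction using recombinant GST-tagged MASTL with His-tagged ENSA as substrate; phosphorylated ENSA (pENSA) serves as read-out of MASTL activity. Cell lines named: MCF7 breast cancer and MCF10A.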

[6] = HTRF, unit µM, read-out: IC50 MASTL activity
[7] = read-out: MASTL activity (%) HTRF
[8] = read-out: IC50 Cell viability (MCF7)
[9] = read-out: IC50 Cell viability (MCF10A)
[10] = HTRF, read-out: IC50(nM) MASTL activity
[11] = read-out: IC50(nM) Cell viability (MCF7)
[12] = read-out: IC50(nM) Cell viability (MCF10A)

SMILES	IC50 [3, 8] [nM]	IC50 [1, 10] [µM]	activity at 1 µM ([1]; compound 1 µM) [%]	viability at 1 µM [3] [%]	IC50 [4, 12] [nM]	pENSA (%) Immunofluor ecense (1 µM) [5] [%]	viability at 1 µM ([2]; mcf10a cells) [%]	other results
Nc1nc(Nc2cc(C3CC3)[nH]n2)c2ccccc2n1 [compound 4ca, N^4-(5-cyclopropyl-1H-pyrazol-3-yl)quinazoline-2,4-diamine]	1700	–	–	–	–	–	–	IC50 [1, 6]: 1.8 µM; activity at 10 µM [1, 7]: 37.4%; viability at 1.25 µM [2]: 99.1%; viability at 1.25 µM [3]: 43%; IC50 [4, 9]: 2800 nM
c1ccc2c(Nc3cc(C4CC4)[nH]n3)nc(Nc3cccc4[nH]ccc34)nc2c1 [compound 4da, N^4-(5-cyclopropyl-1H-pyrazol-3-yl)-N^2-(1H-indol-4-yl)quinazoline-2,4-diamine]	–	0.309	58.5	30.1	683	–	–	IC50 ([5]; unit µM, read-out: IC50 pENSA): 1.8 µM; viability at 1 µM [2]: 18.9%; IC50 [3, 11]: 702 nM
c1ccc2c(Nc3cc(C4CC4)[nH]n3)nc(Nc3cc(C4CC4)[nH]n3)nc2c1 [compound 4n, M^2,M^4-bis(5-cyclopropyl-1G-pyrazol-3-yl)quinazoline-2,4-diamine]	–	–	106	21.5	116	92.8	3.2	IC50 [3, 11]: 287 nM
c1ccc(CCNc2nc(Nc3cc(C4CC4)[nH]n3)c3ccccc3n2)cc1 [compound 4ce, N^4-(5-cyclopropyl-1H-pyrazol-3-yl)-N^2-phenethylquinazoline-2,4-diamine]	1500	0.692	–	–	–	–	–	activity at 10 µM [1, 7]: 14.1%; IC50 ([5]; read-out: IC50(nM) pENSA): 0.491 µM; viability at 1.25 µM [2]: 100%; viability at 1.25 µM [3]: 72.8%; IC50 [4, 9]: 3700 nM
CC(C)(C)OC(=O)NCCNC(=O)c1ccc(Nc2nc(Nc3cc(C4CC4)[nH]n3)c3ccccc3n2)cc1 [compound 4w, sdqs-butyl (2-(4-((4-((5-cyclopropyl-1G-pyrazol-3-yl)amino)quinazolin-2-yl)amino)benzamido)ethyl)carbamate]	1800	–	48.5	72	908	135	63.4	IC50 [1, 6]: 1.3 µM
OCCNc1nc(Nc2cc(C3CC3)[nH]n2)c2ccccc2n1 [compound 4cf, 2-((4-((5-cyclopropyl-1G-pyrazol-3-yl)amino)quinazolin-2-yl)amino)ethan-1-ol hydrochloride]	1800	0.893	–	–	–	17.4	–	activity at 10 µM [1, 7]: 23.7%; IC50 ([5]; read-out: IC50(nM) pENSA): 0.423 µM; viability at 1.25 µM ([2]; mcf10a cells): 56.4%; viability at 1.25 µM [3]: 87%; IC50 [4, 9]: 1200 nM
c1ccc2c(Nc3cc(C4CC4)[nH]n3)nc(N3CC4CCC(C3)N4)nc2c1 [20' (B), 2-(3,8-diazabicyclo[3.2.1]octan-3-yl)-M-(5-cyclopropyl-1G-pyrazol-3-yl)quinazolin-4-amine trifluoroacetic acid]	–	–	–	32	596	21	34.9	IC50 [1]: 0.106 µM; activity at 1 µM [1]: 6.6%; IC50 ([5]; read-out: IC50(nM) pENSA): 0.755 µM; IC50 [3, 11]: 365 nM
COc1ccc(CNc2nc(Nc3cc(C4CC4)[nH]n3)c3ccccc3n2)cc1 [compound 4cd, N^4-(5-cyclopropyl-1H-pyrazol-3-yl)-N^2-(4-methoxybenzyl)quinazoline-2,4-diamine]	2600	0.476	–	–	–	–	–	activity at 10 µM [1, 7]: 20.3%; IC50 ([5]; read-out: IC50(nM) pENSA): 0.543 µM; viability at 1.25 µM [2]: 83.9%; viability at 1.25 µM [3]: 83.8%; IC50 [4, 9]: 2700 nM
CCNC(=O)N1CC2CC1CN2c1nc(Nc2cc(C3CC3)[nH]n2)c2ccccc2n1 (stereo not shown) [compound 15a, 5-(4-((5-cyclopropyl-1G-pyrazol-3-yl)amino)quinazolin-2-yl)-M-ethyl-2,5-diazabicyclo[2.2.1]heptane-2-carboxamide]	–	–	–	–	820	86.1	–	IC50 [1, 6]: 1.1 µM; activity at 1.25 µM ([1]; footnote a: concentration 1.25 µM, read-out: MASTL activity (%) HTRF): 61.1%; viability at 1.25 µM ([2]; mcf10a cells): 37%; viability at 1.25 µM [3]: 61%
CC(C)C(=O)N1CC=C(c2nc(Nc3cc(C4CC4)[nH]n3)c3ccccc3n2)CC1 [compound 9b, 1-(4-(4-((5-cyclopropyl-1G-pyrazol-3-yl)amino)quinazolin-2-yl)-3,6-dihydropyridin-1(2G)-yl)-2-methylpropan-1-one]	1000	0.136	21.7	52.5	316	34.6	12.3	IC50 ([5]; read-out: IC50(nM) pENSA): 0.832 µM
Cc1cc(Nc2nc(N3CC4CC3CN4Cc3ccccc3)nc3ccccc23)n[nH]1 (stereo not shown) [compound 27f, 2-(5-benzyl-2,5-diazabicyclo[2.2.1]heptan-2-yl)-M-(5-methyl-1G-pyrazol-3-yl)quinazolin-4-amine]	–	–	78.4	109	–	77.4	113	–
FC(F)(F)c1cccc(C2=CCN(c3nc(Nc4cc(C5CC5)[nH]n4)c4ccccc4n3)CC2)c1 [compound 6g, M-(5-cyclopropyl-1G-pyrazol-3-yl)-2-(4-(3-(trifluoromethyl)phenyl)-3,6-dihydropyridin-1(2G)-yl)quinazolin-4-amine]	–	–	41.4	95	–	113	104	–
O=C(c1ccccc1)N1CC2CC1CN2c1nc(Nc2cn[nH]c2)c2ccccc2n1 (stereo not shown) [compound 28d, (5-(4-((1G-pyrazol-4-yl)amino)quinazolin-2-yl)-2,5-diazabicyclo[2.2.1]heptan-2-yl)(phenyl)methanone]	–	–	119	93.1	–	66.9	49.7	–
CN(C)S(=O)(=O)c1ccc(Nc2nc(Nc3ccc(C#N)cc3)nc3ccccc23)cc1 [compound 25b, 4-((2-((4-cyanophenyl)amino)quinazolin-4-yl)amino)-M,M-dimethylbenzenesulfonamide]	–	–	91.6	86.4	–	102	58.1	–
CN(C)S(=O)(=O)c1ccc(Nc2nc(Nc3ccccc3)nc3ccccc23)cc1 [compound 25d, M,M-dimethyl-4-((2-(phenylamino)quinazolin-4-yl)amino)benzenesulfonamide]	–	–	–	90.8	–	80.6	106	activity at 1 µM [1]: 107%
NCCCCNC(=O)c1ccc(Nc2nc(Nc3cc(C4CC4)[nH]n3)c3ccccc3n2)cc1 [4ac, M-(4-aminobutyl)-4-((4-((5-cyclopropyl-1G-pyrazol-3-yl)amino)quinazolin-2-yl)amino)benzamide.trifluoroacetic acid]	–	–	–	104	–	149	102	activity at 1 µM [1]: 58.3%
CN(C)S(=O)(=O)c1ccc(Nc2nc(Nc3ccc(CC#N)cc3)nc3ccccc23)cc1 [compound 25a, 4-((2-((4-(cyanomethyl)phenyl)amino)quinazolin-4-yl)amino)-M,M-dimethylbenzenesulfonamide]	–	–	114	105	–	91.2	71.6	–
C1=C(c2ccccc2)CCN(c2nc(Nc3cc(C4CC4)[nH]n3)c3ccccc3n2)C1 [compound 6e, M-(5-cyclopropyl-1G-pyrazol-3-yl)-2-(4-phenyl-3,6-dihydropyridin-1(2G)-yl)quinazolin-4-amine]	–	0.569	43.3	90.9	–	97	91.4	–
